Assay results taken from patent US20230285389A1, “USE OF CSF-1R KINASE INHIBITOR” (Shanghai Runshi Medical Technology Co., Ltd, priority 2020, published 2023).

Assays:
[1] = tested on: CSF-1-induced human macrophages (PBMC-derived CD14+ monocytes); test: Survival of CSF-1-induced human macrophages from PBMC (CCK-8); type: cell-based; conditions: Homo sapiens, 168 h, read-out: IC50 inhibition of cell survival, PBMC (CSF-1)
Method: Cryopreserved human-derived peripheral blood (peripheral blood from healthy donors) mononuclear cells (PBMCs) were taken out of liquid nitrogen for recovery. After recovery, the cells were re-suspended at 50 million/mL with the running buffer and DNAase I was added at a final concentration of 100 µg/mL and the plate was allowed for incubation for 15 min at room temperature. After centrifugation at 300 g for 5 min, the supernatant was discarded. The pellet was re-suspended at 50 million cells/mL with the running buffer, and the suspension was filtered through a 70 µM filter screen into a flow tube. The cells were sorted by using CD14+ monocyte negative selection beads sorting kit from […] company. According to the manufacture’s instructions, the specific experimental procedures were as follows.
After cells were re-suspended at 50 million cells/mL, 50 µL of the cocktail was added to each one mL of samples. The samples were incubated at room temperature for 5 min. The magnetic beads were vortexed for 30 sec, and added to the samples. The samples were incubated for further 5 min. The sample volumes were made up to 2.5 mL. The samples were placed on a magnetic frame ([…], #18000) for 2.5 min. […] The plate was placed in an incubator at 37° C. for 2-4 h, and then was read with an adjustable wavelength microplate reader setting at a wavelength of 450 nm.

[2] = tested on: mouse colon cancer CT-26 xenograft; test: Growth of subcutaneous CT-26 xenografts, combination with anti-PD-1 antibody; type: in vivo, BALB/c mice; conditions: compound I alone (+ Rat IgG2a isotype), 5 mg/kg orally once a day, 12 days
Method: CT-26 cells were subcutaneously inoculated into the right axillary fossa of BALB/c mice at a cell number of 5 × 10^6 per mouse. When the tumor cells successfully formed subcutaneous xenografts in the mice which further grew to an average volume of approximately 100 mm^3, the mice were randomly assigned to the dosing group and the control group. For the anti-PD-1 antibody group, an anti-PD-1 antibody (Bio X Cell Company, InVivoMAb anti-mouse PD-1 (CD279) (catalog : BE0273)) was administered […] once every three days at 10 mg/kg for 12 days. The control group was administrated the same amount of Hamster Ig (Rat IgG2a), as the isotype control of the anti-PD-1 antibody, and the administration route, dosage and frequency were same as those for the anti-PD-1 antibody group. […] Throughout the experiment, the tumor volume and the mice’s body weights were measured twice a week.
The tumor volume (TV) was calculated as TV = ½×a×b^2, where “a” and “b” are the length and width of the xenograft, respectively.
The relative tumor volume (RTV) was calculated from the results of the measurement according to the following equation:
RTV = Vt/V0, where V0 was the tumor volume measured at the beginning of administration (i.e., d0) and Vt was the tumor volume measured at each point.
The evaluation index of the anti-tumor activity was tumor growth inhibition ratio TGI (%), which was calculated as: […]

With CNC(=O)c1cccc2cc(Oc3ccnc(NC(=O)c4ccc(N5C[C@@H](C)N[C@@H](C)C5)cc4)c3)ccc12 [Compound I] the IC50 [1] was 30.5 ± 5.1 nM and the “TGI / tumor inhibition rate” value [2] was 45.8%.
